Data on four compounds can be found in ChEMBL document CHEMBL4257548, “Phenothiazine antioxidants increase mitochondrial biogenesis and frataxin levels in Friedreich's ataxia cells” (Medchemcomm, 2018).

The source made the active and inactive calls. The rule behind the calls is not given here.

The subject of data set [1] is GM16216. The data set is described as follows: Effect on ATP production in human GM16216 cells at 0.1 uM after 24 hrs by Vialight reagent based luminescence assay. The class given is functional, cell-based.
The subject of data set [2] is GM15850. The data set is described as follows: Effect on ATP production in human GM15850 cells at 0.1 uM after 24 hrs by Vialight reagent based luminescence assay. The class given is functional, cell-based.
Data set [3] has as its system GM15850. The data set can be described thus: Effect on mitochondrial membrane potential in human GM15850 cells assessed as loss of mitochondrial membrane potential at 0.25 uM after 16 hrs by JC1 staining based flow cytometry (reference value: 13%). The class given is functional. For orientation: Flow cytometry measures light scatter and fluorescence of single cells or particles in a stream.

Data set [4] deals with GM16216. The data set is described as follows: Effect on mitochondrial membrane potential in human GM16216 cells assessed as intact mitochondrial membrane at 0.25 uM after 16 hrs by JC1 staining based flow cytometry (reference value: 87%). In kind it is functional.
The test system of data set [5] is GM16216. The data set can be described thus: Effect on mitochondrial membrane potential in human GM16216 cells assessed as loss of mitochondrial membrane potential at 0.25 uM after 16 hrs by JC1 staining based flow cytometry (reference value: 13%). In kind it is functional.
Data set [6] concerns GM15850. The data set is described as follows: Effect on mitochondrial membrane potential in human GM15850 cells assessed as intact mitochondrial membrane at 0.25 uM after 16 hrs by JC1 staining based flow cytometry (reference value: 87%). In kind it is functional.
For data set [7], the system named is GM16216. The data set is described as follows: Cytotoxicity against human GM16216 cells at 2.5 uM after 24 to 48 hrs by live/dead staining-based flow cytometry. In kind it is cell-based. Particulars: gm16216, 2.5 µM.
Data set [8] relates to GM16216. The data set is described as follows: Cytoprotection against DEM-induced toxicity in human GM16216 cells assessed as increase in cell viability at 0.5 to 2.5 uM pretreated for 16 hrs followed by DEM addition and measured after 5 hrs by live/dead staining based flow cytometry. The class given is functional.
The test system of data set [9] is GM16216. The data set can be described thus: Inhibition of ATP production in human GM16216 cells after 24 hrs by Vialight reagent based luminescence assay. The class given is functional, cell-based.
The subject of data set [10] is GM15850. The data set is described as follows: Inhibition of ATP production in human GM15850 cells after 24 hrs by Vialight reagent based luminescence assay. The class given is functional, cell-based.
In data set [11] the test system is GM15850. The data set is described as follows: Cytotoxicity against human GM15850 cells at 2.5 uM after 24 to 48 hrs by live/dead staining-based flow cytometry. The class given is cell-based. Particulars: gm15850, 2.5 µM.
The subject of data set [12] is GM15850. The data set can be described thus: Cytoprotection against DEM-induced toxicity in human GM15850 cells assessed as increase in cell viability at 0.5 to 2.5 uM pretreated for 16 hrs followed by DEM addition and measured after 5 hrs by live/dead staining based flow cytometry. In kind it is functional.
Data set [13] deals with GM15850. The data set can be described thus: Increase in ATP production in human GM15850 cells at 0.1 to 0.5 uM after 24 hrs by Vialight reagent based luminescence assay. In kind it is functional, cell-based.
Data set [14] concerns GM16216. The data set is described as follows: Inhibition of ATP production in human GM16216 cells at 2.5 uM after 24 hrs by Vialight reagent based luminescence assay. The class given is functional, cell-based.
Data set [15] deals with GM15850. The data set can be described thus: Inhibition of ATP production in human GM15850 cells at 2.5 uM after 24 hrs by Vialight reagent based luminescence assay. In kind it is functional, cell-based.
In data set [16] the test system is GM15850. The data set is described as follows: Cytotoxicity against human GM15850 cells at 0.25 to 2.5 uM after 24 to 48 hrs by live/dead staining-based flow cytometry. In kind it is cell-based. Particulars: gm15850, 2.5 µM.
Data set [17] relates to GM15850. The data set is described as follows: Increase in frataxin expression in human GM15850 cells at 50 nM after 24 to 48 hrs by ELISA. The class given is functional, cell-based. On the technique in general: An ELISA detects its analyte on a solid surface through an enzyme-linked reagent.
In data set [18] the test system is GM16216. The data set is described as follows: Cytotoxicity against human GM16216 cells at 0.25 to 2.5 uM after 24 to 48 hrs by live/dead staining-based flow cytometry. The class given is cell-based. The settings on record: gm16216, 2.5 µM.
The subject of data set [19] is GM15850. The data set is described as follows: Increase in frataxin expression in human GM15850 cells at 250 nM after 24 to 48 hrs by ELISA. The class given is functional, cell-based.
Data set [20] deals with GM16216. The data set can be described thus: Increase in ATP production in human GM16216 cells at 0.1 to 0.5 uM after 24 hrs by Vialight reagent based luminescence assay. In kind it is functional, cell-based.
Data set [21] deals with GM16216. The data set is described as follows: Increase in frataxin expression in human GM16216 cells at 250 nM after 24 to 48 hrs by ELISA. In kind it is functional, cell-based.
The subject of data set [22] is GM16216. The data set can be described thus: Increase in frataxin expression in human GM16216 cells at 50 nM after 24 to 48 hrs by ELISA. The class given is functional, cell-based.
The subject of data set [23] is GM16216. The data set can be described thus: Induction of mitochondrial biogenesis in human GM16216 cells assessed as increase in ratio of COX1 to SDH-A protein levels at 50 to 250 nM after 24 to 48 hrs by ELISA. The class given is functional, cell-based.
The subject of data set [24] is GM15850. The data set is described as follows: Increase in frataxin expression in human GM15850 cells at 50 to 250 nM after 24 to 48 hrs by ELISA. The class given is functional, cell-based.
The test system of data set [25] is GM16216. The data set can be described thus: Increase in frataxin expression in human GM16216 cells at 50 to 250 nM after 24 to 48 hrs by ELISA. The class given is functional, cell-based.
Data set [26] has as its system GM15850. The data set is described as follows: Induction of mitochondrial biogenesis in human GM15850 cells assessed as increase in ratio of COX1 to SDH-A protein levels at 50 to 250 nM after 24 to 48 hrs by ELISA. In kind it is functional, cell-based.

`CCCCCc1cc2nc3ccc(N(C)C)cc3sc-2cc1=[N+](C)C.[I-]`: the outcome with GM16216 [1] and in the data set on GM15850 [2] was inactive. The Activity with GM15850 [3] is 19%; in the data set with GM16216 [4], 81%; in the data set on GM16216 [5] it was 19%; in the data set with GM15850 [6], 81%; with GM16216 [7], “Toxic”; in the data set on GM15850 [11] it was “Toxic”. For the same compound, the result in the data set with GM16216 [8] and in the data set with GM15850 [12] was Active. In addition, the inhibition entry in the data set with GM16216 [9] and in the data set on GM15850 [10] was “Dose-dependent effect” each time.
`CCCCCCCCCCCCCCCCc1cc2nc3ccc(N(C)C)cc3sc-2cc1=[N+](C)C.[I-]`: the result in the data set on GM15850 [13], in the data set with GM15850 [17], in the data set with GM16216 [8], in the data set on GM16216 [20], with GM15850 [12] and in the data set on GM16216 [22] was Active. Also, the inhibition entry with GM16216 [14] and in the data set on GM15850 [15] was “Active” in each case. In addition, the Activity in the data set on GM15850 [3] is recorded as 14%; with GM15850 [16], “Non-Toxic”; with GM16216 [18], “Non-Toxic”; in the data set with GM16216 [4] it was 86%; in the data set with GM16216 [5] it was 14%; in the data set with GM15850 [6], 86%. Also, the outcome in the data set with GM15850 [19] and in the data set with GM16216 [21] was inactive.
As to `CN(C)c1ccc2nc3ccc(N(C)C)cc3[s+]c2c1.[Cl-]` [METHYLENE BLUE ANHYDROUS], the Activity in the data set on GM15850 [3] came to 17%; with GM16216 [4], 83%; in the data set with GM16216 [5], 17%; in the data set with GM15850 [6] it was 83%.
In the case of `CN(C)c1ccc2nc3ccc(=[N+](C)C)cc-3sc2c1`, the result in the data set with GM16216 [1] and in the data set with GM15850 [2] was inactive. Further, the result in the data set on GM16216 [23], with GM15850 [24], with GM16216 [25], in the data set on GM16216 [8], in the data set with GM15850 [26] and in the data set with GM15850 [12] was Active. Further, the inhibition result in the data set with GM16216 [9] and in the data set on GM15850 [10] was “Dose-dependent effect” in each case.
